23 compounds from PubChem BioAssay AID256 (DTP/NCI, 2004) can be followed below.

“And” between values parts separate entries of the source, which are not always exact repeats. Identical values can stand only once. Toxic doses and inconclusive results are not listed.

This experiment relates to CD2F1 mice, L1210 leukemia ip, survival T/C. In words: NCI In Vivo Anticancer Drug Screen. Data for tumor model L1210 Leukemia (intraperitoneal) in CD2F1 (CDF1) mice. Particulars: higher = longer survival. In outline:
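In this screen, transplantable tumors were grown in mice given either the compound or its vehicle. Results were expressed as the treated measurement relative to the control measurement.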

[1] abbreviates: endpoint: mean survival time, dose: 50.0 mg/kg/injection, schedule: Q01DX009 (ip), vehicle: Klucel (hydroxypropylcellulose) (HPC).
The mark [2] stands for this setting: endpoint: mean survival time, dose: 50.0 mg/kg/injection, schedule: Q01DX009 (ip), vehicle: saline with Tween-80.
The mark [3] stands for this setting: endpoint: mean survival time, dose: 100.0 mg/kg/injection, schedule: Q01DX009 (ip), vehicle: Klucel (hydroxypropylcellulose) (HPC).
[4] abbreviates: endpoint: mean survival time, dose: 100.0 mg/kg/injection, schedule: Q01DX009 (ip), vehicle: saline with Tween-80.
Setting [5] is: endpoint: mean survival time, dose: 200.0 mg/kg/injection, schedule: Q01DX009 (ip), vehicle: Klucel (hydroxypropylcellulose) (HPC).
Setting [6] is: endpoint: mean survival time, dose: 200.0 mg/kg/injection, schedule: Q01DX009 (ip), vehicle: saline with Tween-80.
Setting [7] is: endpoint: mean survival time, dose: 400.0 mg/kg/injection, schedule: Q01DX009 (ip), vehicle: saline with Tween-80.
[8] abbreviates: endpoint: mean survival time, dose: 100.0 mg/kg/injection, schedule: Q04DX002 (ip), vehicle: saline with Tween-80.
[9] abbreviates: endpoint: mean survival time, dose: 200.0 mg/kg/injection, schedule: Q04DX002 (ip), vehicle: saline with Tween-80.
Where [10] appears, read: endpoint: mean survival time, dose: 400.0 mg/kg/injection, schedule: Q04DX002 (ip), vehicle: saline with Tween-80.
Setting [11] is: endpoint: mean survival time, dose: 100.0 mg/kg/injection, schedule: Q04DX003 (ip), vehicle: saline with Tween-80.
Where [12] appears, read: endpoint: mean survival time, dose: 200.0 mg/kg/injection, schedule: Q04DX003 (ip), vehicle: saline with Tween-80.
[13] abbreviates: endpoint: mean survival time, dose: 100.0 mg/kg/injection, schedule: Q01DX001 (ip), vehicle: saline.
The mark [14] stands for this setting: endpoint: mean survival time, dose: 200.0 mg/kg/injection, schedule: Q01DX001 (ip), vehicle: saline.
Where [15] appears, read: endpoint: mean survival time, dose: 400.0 mg/kg/injection, schedule: Q01DX001 (ip), vehicle: saline.
Where [16] appears, read: endpoint: mean survival time, dose: 75.0 mg/kg/injection, schedule: Q01DX009 (ip), vehicle: saline.
Setting [17] is: endpoint: mean survival time, dose: 150.0 mg/kg/injection, schedule: Q01DX009 (ip), vehicle: saline.
[18] abbreviates: endpoint: mean survival time, dose: 12.5 mg/kg/injection, schedule: Q01DX009 (ip), vehicle: saline with Tween-80.
[19] abbreviates: endpoint: mean survival time, dose: 25.0 mg/kg/injection, schedule: Q01DX009 (ip), vehicle: saline with Tween-80.
[20] abbreviates: endpoint: mean survival time, dose: 75.0 mg/kg/injection, schedule: Q01DX001 (ip), vehicle: saline.

For the compound `COc1ccc(OC)c(NC(=O)Oc2cccc(NC(C)=O)c2)c1`, the T/C by setting is: under setting [1], 105 % of control; under setting [2], 103 % of control; under setting [3], 102 % of control; under setting [4], 97 % of control; under setting [5], 100 % of control; under setting [6], 272 % of control and 100 % of control. In addition, the T/C was 102 % of control (endpoint: mean survival time, dose: 400.0 mg/kg/injection, schedule: Q01DX009 (ip), vehicle: Klucel (hydroxypropylcellulose) (HPC)) and 92 % of control under setting [7].
In the case of `Cc1cc(SC(=O)N(C)C)c(S(=O)(=O)F)cc1Cl`, the T/C is, setting by setting: under setting [8], 87 % of control; under setting [9], 87 % of control; under setting [10], 93 % of control.
In the case of `CCC12CCC(=O)C=C1CCCC2=O` (stereo not drawn), the T/C (endpoint: mean survival time, dose: 100.0 mg/kg/injection, schedule: Q04DX003 (ip), vehicle: saline sonified) was 95 % of control.
Consider `CC(C)(C)c1ccc(-c2ccncc2)cc1`, for which the T/C runs as follows: under setting [8], 87 % of control; under setting [9], 105 % of control.
As to `CSc1nc(N)cc(N)n1`, the T/C was 98 % of control under setting [4]; 98 % of control under setting [11]; 95 % of control under setting [6]; 97 % of control under setting [12]; 100 % of control under setting [7]; 102 % of control (endpoint: mean survival time, dose: 400.0 mg/kg/injection, schedule: Q04DX003 (ip), vehicle: saline with Tween-80).
For the compound `CCN(Cc1ccccc1)c1ccc(SC#N)cc1`, the T/C was 100 % of control under setting [13], 100 % of control under setting [14] and 93 % of control under setting [15].
With `NOCc1nnc(Nc2ccccc2)s1`, the T/C is, setting by setting: under setting [13], 100 % of control; under setting [14], 97 % of control; under setting [15], 96 % of control.
As to `COc1ccc(NC(=O)Nc2ccc(F)c(Cl)c2)c(OC)c1`, the T/C runs as follows: under setting [4], 97 % of control; under setting [6], 103 % of control; under setting [7], 112 % of control.
In the case of `O=S1(=O)OCCC1C(O)(c1ccccc1)c1ccccc1` (stereo not drawn), the T/C reads like this: under setting [16], 97 % of control; (endpoint: mean survival time, dose: 75.0 mg/kg/injection, schedule: Q04DX003 (ip), vehicle: saline) 100 % of control; under setting [17], 103 % of control; (endpoint: mean survival time, dose: 150.0 mg/kg/injection, schedule: Q04DX003 (ip), vehicle: saline) 97 % of control; (endpoint: mean survival time, dose: 300.0 mg/kg/injection, schedule: Q01DX009 (ip), vehicle: saline) 100 % of control; (endpoint: mean survival time, dose: 300.0 mg/kg/injection, schedule: Q04DX003 (ip), vehicle: saline) 97 % of control.
`C=CC1(O)CCCCC1`: the T/C by setting is: (endpoint: mean survival time, dose: 100.0 mg/kg/injection, schedule: Q01DX001 (ip), vehicle: saline with Tween-80) 100 % of control; (endpoint: mean survival time, dose: 200.0 mg/kg/injection, schedule: Q01DX001 (ip), vehicle: saline with Tween-80) 100 % of control; (endpoint: mean survival time, dose: 400.0 mg/kg/injection, schedule: Q01DX001 (ip), vehicle: saline with Tween-80) 97 % of control.
Regarding `CCCN1COC(OCC)C(C)(C)C1` (stereo not drawn), the T/C reads like this: under setting [18], 112 % of control; (endpoint: mean survival time, dose: 12.5 mg/kg/injection, schedule: Q01DX009 (ip), vehicle: saline) 91 % of control; under setting [19], 100 % of control; (endpoint: mean survival time, dose: 25.0 mg/kg/injection, schedule: Q01DX009 (ip), vehicle: saline) 100 % of control; under setting [2], 107 % of control; (endpoint: mean survival time, dose: 50.0 mg/kg/injection, schedule: Q01DX009 (ip), vehicle: saline) 103 % of control. The T/C is, setting by setting: under setting [4], 114 % of control; (endpoint: mean survival time, dose: 100.0 mg/kg/injection, schedule: Q01DX009 (ip), vehicle: saline) 97 % of control; under setting [6], 106 % of control; (endpoint: mean survival time, dose: 200.0 mg/kg/injection, schedule: Q01DX009 (ip), vehicle: saline) 109 % of control.
With `CC(=O)C(C#N)c1c(C)cc(C)cc1C` (stereo not drawn), the T/C was 96 % of control (endpoint: mean survival time, dose: 37.5 mg/kg/injection, schedule: Q01DX009 (ip), vehicle: saline); 98 % of control under setting [16]; 96 % of control under setting [17].
In the case of `NC(=O)NN=C1CCC1`, under setting [20], the T/C is 98 % of control.
For `Cc1cc(C)c(S(=O)(=O)n2ccnc2)c(C)c1`, the T/C under setting [1] was 94 % of control, the T/C under setting [3] is 94 % of control and the T/C under setting [5] is 105 % of control.
Regarding `C=COC(=O)N1CCCCC1`, the T/C reads like this: under setting [20], 97 % of control; (endpoint: mean survival time, dose: 150.0 mg/kg/injection, schedule: Q01DX001 (ip), vehicle: saline) 98 % of control; (endpoint: mean survival time, dose: 300.0 mg/kg/injection, schedule: Q01DX001 (ip), vehicle: saline) 106 % of control.
As for `O=C(O)C(O)C(O)C(OC1OC(CO)C(O)C(O)C1O)C(O)CO.O=C(O)C(O)C(O)C(OC1OC(CO)C(O)C(O)C1O)C(O)CO.[NH-]C1CCCCC1[NH-].[Pt+2]` (stereo not drawn), the T/C is 113 % of control (endpoint: median survival time, dose: 3.12 mg/kg/injection, schedule: Q04DX003 (ip), vehicle: saline); 121 % of control (endpoint: median survival time, dose: 6.25 mg/kg/injection, schedule: Q04DX003 (ip), vehicle: saline); 162 % of control (endpoint: median survival time, dose: 12.5 mg/kg/injection, schedule: Q04DX003 (ip), vehicle: saline); 195 % of control (endpoint: median survival time, dose: 25.0 mg/kg/injection, schedule: Q04DX003 (ip), vehicle: saline); 158 % of control and 365 % of control (endpoint: median survival time, dose: 50.0 mg/kg/injection, schedule: Q04DX003 (ip), vehicle: saline); 119 % of control (endpoint: median survival time, dose: 200.0 mg/kg/injection, schedule: Q04DX003 (ip), vehicle: saline).
Take `COc1cc2c(ccc3cc4cccc[n+]4cc32)c(Br)c1OC`: the T/C was 98 % of control under setting [18]; 97 % of control (endpoint: mean survival time, dose: 12.5 mg/kg/injection, schedule: Q04DX003 (ip), vehicle: saline sonified); 100 % of control under setting [19]; 97 % of control (endpoint: mean survival time, dose: 25.0 mg/kg/injection, schedule: Q04DX003 (ip), vehicle: saline sonified); 100 % of control under setting [2]; 103 % of control (endpoint: mean survival time, dose: 50.0 mg/kg/injection, schedule: Q04DX003 (ip), vehicle: saline sonified).
As to `Cc1ncoc1C(=O)O`, the T/C is, setting by setting: under setting [11], 109 % of control; under setting [12], 104 % of control.
As for `O=S(=O)(/N=C1\C=CC=C\C1=N/S(=O)(=O)c1ccccc1)c1ccccc1`, the T/C is 95 % of control under setting [4], 92 % of control under setting [6] and 98 % of control under setting [7].
For `COc1ccccc1NC(=O)Nc1cc([N+](=O)[O-])ccc1OC`, the T/C is 96 % of control under setting [8], 93 % of control under setting [9] and 86 % of control under setting [10].
Regarding `CSc1nc(=O)n(C2OC(CO)C(O)C2O)nc1SCc1ccccc1` (stereo not drawn), the T/C is 94 % of control (endpoint: mean survival time, dose: 12.5 mg/kg/injection, schedule: Q01DX005 (ip), vehicle: distilled water + Tween-80); 94 % of control (endpoint: mean survival time, dose: 25.0 mg/kg/injection, schedule: Q01DX005 (ip), vehicle: distilled water + Tween-80); 92 % of control (endpoint: mean survival time, dose: 50.0 mg/kg/injection, schedule: Q01DX005 (ip), vehicle: distilled water + Tween-80).
`CC(C(O)c1ccc(Br)cc1)C(O)(C(F)(F)F)C(F)(F)F` (stereo not drawn): the T/C was 113 % of control (endpoint: mean survival time, dose: 100.0 mg/kg/injection, schedule: Q04DX003 (ip), vehicle: other); 107 % of control (endpoint: mean survival time, dose: 200.0 mg/kg/injection, schedule: Q04DX003 (ip), vehicle: other); 100 % of control (endpoint: mean survival time, dose: 400.0 mg/kg/injection, schedule: Q04DX003 (ip), vehicle: other).
For the compound `NCCNc1ccccc1C(=O)O`, the T/C is, setting by setting: (endpoint: median survival time, dose: 50.0 mg/kg/injection, schedule: Q04DX002 (ip), vehicle: saline with Tween-80) 111 % of control; (endpoint: median survival time, dose: 100.0 mg/kg/injection, schedule: Q04DX002 (ip), vehicle: saline with Tween-80) 100 % of control; (endpoint: median survival time, dose: 200.0 mg/kg/injection, schedule: Q04DX002 (ip), vehicle: saline with Tween-80) 100 % of control; (endpoint: median survival time, dose: 400.0 mg/kg/injection, schedule: Q04DX002 (ip), vehicle: saline with Tween-80) 111 % of control.
